Measurements: PubChem BioAssay AID1259407 (Chemical Carcinogenesis Research Information System (CCRIS), 2018)
The source made the active and inactive calls. No rule for the calls is given here.

System: CCRIS mutagenicity, Ames/micronucleus/aberration tests
Experiment: CCRIS mutagenicity studies
[1] = Test System: AMES SALMONELLA TYPHIMURIUM, Strain/Indicator: TA98, Metabolic Activation: NONE, Method: STANDARD PLATE
[2] = Test System: AMES SALMONELLA TYPHIMURIUM, Strain/Indicator: TA98, Metabolic Activation: RAT, LIVER, S-9, AROCLOR 1254, Method: STANDARD PLATE
[3] = Test System: AMES SALMONELLA TYPHIMURIUM, Strain/Indicator: TA100, Metabolic Activation: NONE, Method: STANDARD PLATE
[4] = Test System: AMES SALMONELLA TYPHIMURIUM, Strain/Indicator: TA100, Metabolic Activation: RAT, LIVER, S-9, AROCLOR 1254, Method: STANDARD PLATE

`[O]=[V](=[O])[OH]` was tested, and the mutagenic call (Test System: AMES SALMONELLA TYPHIMURIUM, Strain/Indicator: TA100, Metabolic Activation: NONE, Method: FLUCTUATION TEST) was “active; positive”, the mutagenic call (Test System: AMES SALMONELLA TYPHIMURIUM, Strain/Indicator: TA1535, Metabolic Activation: NONE, Method: STANDARD PLATE (PH 7.8, MEDIUM WITH TRIMETAPHOSPHATE IONS)) was “active; positive” and the mutagenic call (Test System: CHINESE HAMSTER G12, Strain/Indicator: G12/6-THIOGUANINE, Metabolic Activation: NONE) was “active; positive”. For the same compound, the mutagenic call (Test System: CHINESE HAMSTER V-79, Strain/Indicator: V-79/6-THIOGUANINE, Metabolic Activation: MOUSE, LIVER, S-9) was “inactive; negative” and the mutagenic call (Test System: E. COLI, Strain/Indicator: WP2 UVRA, Metabolic Activation: NONE, Method: SPOT TEST) was “inactive; negative”.

`O=S(=O)(O)CNc1ccc(N=Nc2cccnc2)cc1` was tested, and the mutagenic call [1] was “inactive; negative”, the mutagenic call [2] was “inactive; negative” and the mutagenic call [3] was “inactive; negative”. For the same compound, the mutagenic call [4] was “inactive; negative”, the mutagenic call (Test System: AMES SALMONELLA TYPHIMURIUM, Strain/Indicator: TA1535, Metabolic Activation: NONE, Method: STANDARD PLATE) was “inactive; negative” and the mutagenic call (Test System: AMES SALMONELLA TYPHIMURIUM, Strain/Indicator: TA1535, Metabolic Activation: RAT, LIVER, S-9, AROCLOR 1254, Method: STANDARD PLATE) was “inactive; negative”. For the same compound, the mutagenic call (Test System: AMES SALMONELLA TYPHIMURIUM, Strain/Indicator: TA1537, Metabolic Activation: NONE, Method: STANDARD PLATE) was “inactive; negative”, the mutagenic call (Test System: AMES SALMONELLA TYPHIMURIUM, Strain/Indicator: TA1537, Metabolic Activation: RAT, LIVER, S-9, AROCLOR 1254, Method: STANDARD PLATE) was “inactive; negative” and the mutagenic call (Test System: AMES SALMONELLA TYPHIMURIUM, Strain/Indicator: TA1538, Metabolic Activation: NONE, Method: STANDARD PLATE) was “inactive; negative”. The mutagenic call (Test System: AMES SALMONELLA TYPHIMURIUM, Strain/Indicator: TA1538, Metabolic Activation: RAT, LIVER, S-9, AROCLOR 1254, Method: STANDARD PLATE) was “inactive; negative”.

For `ClC1=C(Cl)[C@]2(Cl)[C@@H]3[C@@H]4C[C@@H]([C@H]5O[C@@H]45)[C@@H]3[C@@]1(Cl)C2(Cl)Cl`, the mutagenic call (End Point: IN VITRO CHROMOSOMAL ABERRATIONS, Test System: CHINESE HAMSTER OVARY CELLS, Metabolic Activation: NONE) was “inactive; negative”, the mutagenic call (End Point: IN VITRO CHROMOSOMAL ABERRATIONS, Test System: CHINESE HAMSTER OVARY CELLS, Metabolic Activation: RAT, LIVER, S-9, AROCLOR 1254) was “inactive; negative; precipitation occurred at all doses” and the mutagenic call (Test System: AMES SALMONELLA TYPHIMURIUM, Strain/Indicator: TA97, Metabolic Activation: NONE, Method: STANDARD PLATE) was “inactive; negative”. For the same compound, the mutagenic call (Test System: AMES SALMONELLA TYPHIMURIUM, Strain/Indicator: TA97, Metabolic Activation: RAT, LIVER, S-9, AROCLOR 1254, Method: STANDARD PLATE) was “inactive; negative”, the mutagenic call [1] was “inactive; negative” and the mutagenic call [2] was “inactive; negative”. For the same compound, the mutagenic call [3] was “inactive; negative”, the mutagenic call [4] was “inactive; negative” and the mutagenic call (Test System: AMES SALMONELLA TYPHIMURIUM, Strain/Indicator: TA102, Metabolic Activation: NONE, Method: STANDARD PLATE) was “inactive; negative”. For the same compound, the mutagenic call (Test System: AMES SALMONELLA TYPHIMURIUM, Strain/Indicator: TA102, Metabolic Activation: RAT, LIVER, S-9, AROCLOR 1254, Method: STANDARD PLATE) was “inactive; negative”, the mutagenic call (Test System: CHINESE HAMSTER V-79, Strain/Indicator: V-79/OUABAIN, Metabolic Activation: NONE, Method: STANDARD PLATE) was “active; positive” and the mutagenic call (Test System: MOUSE LYMPHOMA, Strain/Indicator: L5178Y (TK+/TK-), Metabolic Activation: NONE, Method: SUSPENSION/PLATE) was “active; positive”.

In the case of `O=C1CCc2c1cc(C(F)(F)F)c1c3c(ccc21)[C@H](O)[C@@H](O)C=C3`, the mutagenic call (Test System: AMES SALMONELLA TYPHIMURIUM, Strain/Indicator: TA100, Metabolic Activation: RAT, LIVER, S-9, AROCLOR 1254) is reported as “active; positive”.

For `CC(=O)OO`, the mutagenic call (Test System: AMES SALMONELLA TYPHIMURIUM, Strain/Indicator: TA97, Metabolic Activation: HAMSTER, LIVER, S-9, AROCLOR 1254 (10 OR 30%), Method: PREINCUBATION) was “inactive; negative”, the mutagenic call (Test System: AMES SALMONELLA TYPHIMURIUM, Strain/Indicator: TA97, Metabolic Activation: NONE, Method: PREINCUBATION) was “inactive; negative” and the mutagenic call (Test System: AMES SALMONELLA TYPHIMURIUM, Strain/Indicator: TA97, Metabolic Activation: RAT, LIVER, S-9, AROCLOR 1254 (10 OR 30%), Method: PREINCUBATION) was “inactive; negative”. For the same compound, the mutagenic call (Test System: AMES SALMONELLA TYPHIMURIUM, Strain/Indicator: TA98, Metabolic Activation: HAMSTER, LIVER, S-9, AROCLOR 1254 (10 OR 30%), Method: PREINCUBATION) was “inactive; negative”, the mutagenic call (Test System: AMES SALMONELLA TYPHIMURIUM, Strain/Indicator: TA98, Metabolic Activation: NONE, Method: PREINCUBATION) was “inactive; negative” and the mutagenic call (Test System: AMES SALMONELLA TYPHIMURIUM, Strain/Indicator: TA98, Metabolic Activation: RAT, LIVER, S-9, AROCLOR 1254 (10 OR 30%), Method: PREINCUBATION) was “inactive; negative”. For the same compound, the mutagenic call (Test System: AMES SALMONELLA TYPHIMURIUM, Strain/Indicator: TA100, Metabolic Activation: HAMSTER, LIVER, S-9, AROCLOR 1254 (10 OR 30%), Method: PREINCUBATION) was “inactive; negative”, the mutagenic call (Test System: AMES SALMONELLA TYPHIMURIUM, Strain/Indicator: TA100, Metabolic Activation: NONE, Method: PREINCUBATION) was “inactive; negative” and the mutagenic call (Test System: AMES SALMONELLA TYPHIMURIUM, Strain/Indicator: TA100, Metabolic Activation: RAT, LIVER, S-9, AROCLOR 1254 (10 OR 30%), Method: PREINCUBATION) was “inactive; negative”. The mutagenic call (Test System: AMES SALMONELLA TYPHIMURIUM, Strain/Indicator: TA1535, Metabolic Activation: HAMSTER, LIVER, S-9, AROCLOR 1254 (10 OR 30%), Method: PREINCUBATION) was “inactive; negative”, the mutagenic call (Test System: AMES SALMONELLA TYPHIMURIUM, Strain/Indicator: TA1535, Metabolic Activation: NONE, Method: PREINCUBATION) was “inactive; negative” and the mutagenic call (Test System: AMES SALMONELLA TYPHIMURIUM, Strain/Indicator: TA1535, Metabolic Activation: RAT, LIVER, S-9, AROCLOR 1254 (10 OR 30%), Method: PREINCUBATION) was “inactive; negative”.

`C[n+]1ccc(-c2ccccn2)cc1` was tested, and the mutagenic call (Test System: AMES SALMONELLA TYPHIMURIUM, Strain/Indicator: TA97, Metabolic Activation: RAT, LIVER, S-9, PHENOBARBITAL, Method: STANDARD PLATE) was “inactive; negative”, the mutagenic call (Test System: AMES SALMONELLA TYPHIMURIUM, Strain/Indicator: TA98, Metabolic Activation: RAT, LIVER, S-9, PHENOBARBITAL, Method: STANDARD PLATE) was “active; positive” and the mutagenic call (Test System: AMES SALMONELLA TYPHIMURIUM, Strain/Indicator: TA100, Metabolic Activation: RAT, LIVER, S-9, PHENOBARBITAL, Method: STANDARD PLATE) was “inactive; negative”. For the same compound, the mutagenic call (Test System: AMES SALMONELLA TYPHIMURIUM, Strain/Indicator: TA1535, Metabolic Activation: RAT, LIVER, S-9, PHENOBARBITAL, Method: STANDARD PLATE) was “inactive; negative”, the mutagenic call (Test System: AMES SALMONELLA TYPHIMURIUM, Strain/Indicator: TA1537, Metabolic Activation: RAT, LIVER, S-9, PHENOBARBITAL, Method: STANDARD PLATE) was “inactive; negative” and the mutagenic call (Test System: AMES SALMONELLA TYPHIMURIUM, Strain/Indicator: TA1538, Metabolic Activation: RAT, LIVER, S-9, PHENOBARBITAL, Method: STANDARD PLATE) was “inactive; negative”.

`CCN(C(C)OC(C)=O)[N+](=O)[O-]` (centres undefined) was tested, and the mutagenic call (Test System: E. COLI, Strain/Indicator: WP2 (HCR-), Metabolic Activation: NONE) was “active; positive”.

In the case of `CC/C=C/C=C/C=C/C=C/C=O`, the mutagenic call [1] is reported as “inactive; negative”, the mutagenic call [3] is reported as “inactive; negative” and the mutagenic call (Test System: AMES SALMONELLA TYPHIMURIUM, Strain/Indicator: TA104, Metabolic Activation: NONE, Method: STANDARD PLATE) is reported as “inactive; negative”.

`NNc1ccn([C@@H]2O[C@H](CO)[C@@H](O)[C@H]2O)c(=O)n1` was tested, and the mutagenic call (Test System: CHINESE HAMSTER V-79, Strain/Indicator: V-79/6-THIOGUANINE, Metabolic Activation: NONE, Method: REPLATING) was “active; positive”.

In the case of `Cc1cc2c(nc1N)[nH]c1ccccc12`, the mutagenic call (Test System: AMES SALMONELLA TYPHIMURIUM, Strain/Indicator: TA98, Metabolic Activation: RAT, LIVER, S-9, AROCLOR 1254, Method: PREINCUBATION) is reported as “active; positive”, the mutagenic call (Test System: AMES SALMONELLA TYPHIMURIUM, Strain/Indicator: TA100, Metabolic Activation: RAT, LIVER, S-9, AROCLOR 1254, Method: PREINCUBATION) is reported as “active; positive” and the mutagenic call (Test System: AMES SALMONELLA TYPHIMURIUM, Strain/Indicator: YG1019, Metabolic Activation: RAT LIVER S-9, AROCLOR, Method: PREINCUBATION) is reported as “active; positive”.
